Structures are written as SMILES.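 Where inhibition never reached the appropriate level, the endpoint shown equals the highest concentration tested. Otherwise, values were interpolated linearly from a five-concentration, 48-hour dose response in 96-well plates. Abbreviation: GI50, concentration required for 50% inhibition of growth. TGI marks complete inhibition of growth.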

Holding throughout (experiment): growth of human tumour cells (NCI), 48 h
The test system of assay [1] is A549 NSCLC.
In assay [2] the test system is MALME-3M melanoma.
Assay [3] concerns MOLT-4 leukemia.
The subject of assay [4] is NCI-H522 lung.
Assay [5] has as its system SF-295 CNS.
The subject of assay [6] is SK-MEL-5 melanoma.
In assay [7] the test system is SNB-19 CNS.
In assay [8] the test system is U251 CNS.
The test system of assay [9] is CAKI-1 renal.
For assay [10], the system named is HOP-92 NSCLC.

Regarding `COC(=O)N[C@H](C(=O)O)C(C)O[Si](C)(C)C(C)(C)C` (some centres not stated), the TGI in assay [1], in assay [2], in assay [3], in assay [4], in assay [5] and in assay [6] was greater than 100 µM each time. Moreover, the TGI in [7] and in [8] was greater than 100 µM throughout.

Regarding `C=C(C)COC1CCCCO1` (configuration not stated), the TGI in assay [1], in [9], in assay [2], in assay [3], in assay [4] and in [5] was greater than 100 µM in each case. Further, the TGI in assay [6], in [7] and in assay [8] was greater than 100 µM throughout.

As for `O=C(Nc1cccc([N+](=O)[O-])c1)c1n[nH]n(-c2cccc([N+](=O)[O-])c2)c1=O`, the TGI in assay [1], in assay [9], in assay [2], in assay [3], in assay [4] and in assay [5] was greater than 100 µM throughout. The TGI in [6], in assay [7] and in assay [8] was greater than 100 µM in each case.

Regarding `c1csc(-c2ccsc2-c2cccs2)c1`, the TGI in assay [1] was 61 µM; in assay [9] it was greater than 100 µM; in assay [10], greater than 100 µM; in assay [3], 71.1 µM; in assay [4], greater than 100 µM; in assay [5], greater than 100 µM. The TGI in [6] and in assay [8] was greater than 100 µM each time.

Take `Cc1csc2c1-n1cccc1C2=O`: the TGI in assay [1], in [9], in assay [2], in assay [3], in assay [4] and in assay [5] was greater than 100 µM each time. Moreover, the TGI in assay [6], in assay [7] and in assay [8] was greater than 100 µM throughout.

As to `CCOC(=O)C(Cc1ccc(OC(=O)OC(C)(C)C)cc1)NC(=O)OC(C)(C)C` (configuration not stated), the TGI in [1] is greater than 100 µM; in assay [9], greater than 100 µM; in assay [2], greater than 100 µM; in [3], 56.7 µM; in assay [4], greater than 100 µM; in assay [5] it was greater than 100 µM. Also, the TGI in assay [6], in [7] and in assay [8] was greater than 100 µM throughout.

With `CC1CC/C(=C\c2ccc(F)cc2)C(=O)/C1=C/c1ccc(F)cc1` (configuration not stated), the TGI in assay [9] is 12.1 µM; in assay [2], 32.8 µM; in assay [3], 8.81 µM; in assay [5], 7.38 µM; in assay [6], 24.1 µM; in assay [7], 35.5 µM. Further, in assay [8], the TGI worked out at 22.7 µM.

In the case of `Cc1c(N=Nc2ccccc2)c(C)n(C2OC(CO)C(O)C(O)C2O)c(=S)c1C#N` (configuration not stated), the TGI in assay [1] is greater than 100 µM; in assay [9], greater than 100 µM; in assay [10] it was 48.9 µM; in [2], greater than 100 µM; in assay [3], 70 µM; in assay [5], greater than 100 µM. Besides, the TGI amounted to 25 µM in assay [6], 96.2 µM in assay [7] and 87.2 µM in assay [8].

Consider `Cn1ncc2c(Cl)ncnc21`, for which the TGI in assay [1], in [9], in [10], in [3], in assay [4] and in assay [5] was greater than 100 µM each time. For the same molecule, the TGI in assay [6], in assay [7] and in assay [8] was greater than 100 µM each time.

As to `O=C(c1ccccc1)C1S(=O)(=O)OCCOS1(=O)=O`, the TGI in assay [1], in assay [9], in [10], in assay [2], in assay [4] and in assay [5] was greater than 100 µM each time. Besides, the TGI in [6] and in assay [7] was greater than 100 µM each time.

As to `O=C1C(Cl)=C(N(C(=O)c2ccccc2)C(=O)c2ccccc2)C(=O)c2ccccc21`, the TGI is greater than 100 µM in assay [1]; 23.3 µM in [9]; 34.8 µM in assay [10]; greater than 100 µM in assay [3]; 43.7 µM in assay [4]; greater than 100 µM in assay [5]. Besides, the TGI in [6] is 12.4 µM; in [7], greater than 100 µM; in [8] it was greater than 100 µM.

With `COc1ccccc1NC(=O)CC(=O)N1N=C(N2c3ccccc3Sc3ccccc32)CC1c1ccccc1` (configuration not stated), the TGI in assay [1], in assay [9], in assay [10], in assay [3], in assay [4] and in assay [5] was greater than 100 µM in each case. Moreover, the TGI in assay [6], in assay [7] and in [8] was greater than 100 µM each time.

On to `O=c1ccn(C2OC(CO)C(O)C2F)c(=O)n1Cc1ccccc1` (configuration not stated), for which the TGI in [1], in [9], in assay [2], in assay [3], in assay [4] and in [5] was greater than 100 µM in each case. Also, the TGI in assay [6], in [7] and in assay [8] was greater than 100 µM throughout.

Take `NNC(=S)NCCNC(=S)NN`: the TGI in [1], in [9], in assay [2], in assay [3], in assay [4] and in [5] was greater than 100 µM throughout. Also, the TGI in assay [6], in assay [7] and in assay [8] was greater than 100 µM in each case.

`O=C(NC(=O)c1cc(-c2ccccc2)n[nH]1)c1ccccc1`: the TGI in assay [1], in assay [9], in assay [10], in assay [3], in [4] and in [5] was greater than 100 µM each time. The TGI in assay [6] and in assay [8] was greater than 100 µM in each case.

Take `COc1cc(OC)c2c3c(OC)cc(OC)c4c(=O)c(O)c(C[C@@H](C)O)c(c5c(C[C@@H](C)O)c(O)c(=O)c1c25)c43`: the TGI in assay [1] is greater than 100 µM; in assay [9], 53.2 µM; in [10] it was 35.4 µM; in assay [3] it was 39.4 µM; in [5] it was greater than 100 µM; in [6] it was 28.4 µM. Besides, the TGI was greater than 100 µM in [7] and 67.9 µM in [8].

`CC(C)(C)OC(=O)CN1CCNCCN(CC(=O)OC(C)(C)C)CCNCC1`: the TGI in assay [1], in [9], in [10], in assay [3], in assay [4] and in [5] was greater than 100 µM throughout. Also, the TGI in [6], in assay [7] and in [8] was greater than 100 µM in each case.

Turning to `O=C(N=c1ccc2nc(=O)[nH]n(O)c-2c1)C(F)(F)F`, the TGI in assay [1], in assay [9], in [3], in [4], in assay [5] and in assay [6] was greater than 100 µM in each case. Further, the TGI in [7] and in assay [8] was greater than 100 µM throughout.

As to `COc1ccc2c3c([nH]c2c1)CCN(CCCC(=O)c1ccc(F)cc1)C3`, the TGI in assay [1] worked out at 32.1 µM; in assay [9], 31.8 µM; in assay [2], 27 µM; in [3], 36.2 µM; in assay [4], 42.8 µM; in [5] it was 29.4 µM. Also, the values for the TGI in [6], in [7] and in assay [8] were 26 µM, 28.2 µM and 32 µM, respectively.

With `O=c1oc2ccccc2cc1-c1cn2c(n1)sc1ccccc12`, the TGI in assay [1], in assay [9], in [10], in assay [3], in assay [4] and in assay [5] was greater than 100 µM throughout. For the same molecule, the TGI in assay [6] and in assay [8] was greater than 100 µM each time.

In the case of `Clc1ccc(-c2cn3c(nc4ccccc43)c(/C=C/c3ccco3)n2)cc1`, the TGI in [1] is greater than 100 µM; in assay [10], 50.4 µM; in assay [2], greater than 100 µM; in assay [6] it was greater than 100 µM; in [7], greater than 100 µM; in assay [8], greater than 100 µM.

As for `C/C=C1\CN(C(=O)OC(C)(C)C)C1C(=O)OC(C)(C)C` (configuration not stated), the TGI in [1], in assay [9], in assay [10], in assay [2], in assay [3] and in [5] was greater than 100 µM throughout. The TGI in [6] and in [7] was greater than 100 µM each time.

With `COc1cc(OC)cc(-c2n/c(=C\c3c(O)[nH]c4ccc(OC)cc34)cc3c2=Nc2ccccc2-3)c1`, the GI50 is 11.6 µM in [1]; greater than 100 µM in assay [9]; 2.27 µM in assay [2]; 2.56 µM in [3]; 17.8 µM in [4]; 14.4 µM in [5]. Also, the GI50 in assay [6] was 12.1 µM; in assay [7], 5.82 µM; in [8], 1.93 µM. For the same molecule, the TGI in assay [1] was 26.1 µM; in assay [9], greater than 100 µM; in assay [2] it was 5.42 µM; in assay [3], 6.36 µM; in assay [4] it was 37.2 µM; in assay [5] it was 34 µM. Moreover, the figures for the TGI in [6], in assay [7] and in assay [8] were 25.2 µM, 27.7 µM and 3.84 µM, respectively.

On to `Cc1sc2c(c1C)/C(=N\O)c1cccn1-2`, for which the TGI in assay [1], in assay [9], in assay [2], in assay [3], in [4] and in assay [5] was greater than 100 µM throughout. Also, the figures for the TGI in assay [6], in [7] and in [8] were greater than 100 µM, 63.2 µM and 69.7 µM, respectively.

On to `Cc1ccc(C(=O)Nc2ccc(CP(=O)(O)O)cc2CP(=O)(O)O)cc1NC(=O)Nc1cc(C(=O)Nc2ccc(CP(=O)(O)O)cc2CP(=O)(O)O)ccc1C`, for which the TGI in assay [1], in assay [9], in [2], in [4], in assay [5] and in assay [6] was greater than 100 µM throughout. Also, the TGI in [7] and in assay [8] was greater than 100 µM throughout.

As to `N#C/C(=C/c1ccc2c(c1)OCO2)C(=O)c1ccccc1`, the TGI in assay [1], in [9], in assay [2], in [3], in [4] and in [5] was greater than 100 µM in each case. The TGI in assay [6], in [7] and in [8] was greater than 100 µM in each case.

Consider `OCCN(/N=C\c1ccc2ccccc2c1)C1=NCCN1`, for which the TGI was greater than 100 µM in assay [1]; 53.1 µM in assay [10]; 29.6 µM in assay [2]; 44.5 µM in [3]; greater than 100 µM in assay [5]; 33.1 µM in assay [6]. Further, the results for the TGI in assay [7] and in assay [8] were greater than 100 µM and 73.8 µM, respectively.

In the case of `CCOC(=O)C(Cc1c[nH]c2cc([N+](=O)[O-])ccc12)NS(=O)(=O)c1ccc2ccccc2c1` (configuration not stated), the TGI was greater than 100 µM in [1]; 51.6 µM in assay [10]; greater than 100 µM in assay [3]; 30.4 µM in [4]; 32.5 µM in assay [5]; greater than 100 µM in assay [7]. The TGI in assay [8] came to 32.9 µM.

For the molecule `CCOC(=O)Nc1ccc2c(c1)c(CCCCCCc1nc3ccccc3c3ccc(NC(=O)OCC)cc13)nc1ccccc12`, the TGI in assay [1] was greater than 100 µM; in assay [9] it was greater than 100 µM; in assay [10], 63 µM; in assay [3], greater than 100 µM; in assay [4], 60.5 µM; in assay [5], greater than 100 µM. In addition, the TGI in [6] and in assay [7] was greater than 100 µM each time.

These data come from PubChem BioAssay (NCI).
